Experimental data taken from US7153813B2, “Substituted aryl ketones” (Bayer Aktiengesellschaft, priority 2002, dated 2006).
Read-outs that look alike come from different tables or passages of the source.

Experiments:
[1] = logP determination by HPLC (EEC Directive 79/831 Annex V.A8), reverse-phase column C 18; format: physicochemical; settings: for chromatographic logP: reverse-phase C18 HPLC column, stated in the preparation example, read-out: Log P
Method: The logP values given in the tables were determined in accordance with EEC Directive 79/831 Annex V.A8 by HPLC (High Performance Liquid Chromatography) using a reverse-phase column (C 18). Temperature: 43° C. • (a) Mobile phases for the determination in the acidic range: 0.1% aqueous phosphoric acid, acetonitrile; linear gradient from 10% acetonitrile to 90% acetonitrile—corresponding measurement data are marked a) in Table 1. • (b) Mobile phases for the determination in the neutral range: 0.01 molar aqueous phosphate buffer solution, acetonitrile; linear gradient from 10% acetonitrile to 90% acetonitrile—the corresponding measurement data are marked b) in Table 1. The calibration was carried out using unbranched alkan-2-ones (having 3 to 16 carbon atoms) with known logP values (determination of the logP values by the retention times using linear interpolation between two successive alkanones).

weeds [2] = assay: Post-Emergence Test (Example B), damage to weeds; format: in vivo; settings: test plants of 5–15 cm sprayed, rated after three weeks
Method: (§1) • Solvent: 5 parts by weight of acetone • Emulsifier: 1 part by weight of alkylaryl polyglycol ether
To produce a suitable preparation of active compound, 1 part by weight of active compound is mixed with the stated amount of solvent, the stated of amount of emulsifier is added and the concentrate is diluted with water to the desired concentration.
Test plants of a height of 5–15 cm are sprayed with the preparation of active compound such that the particular amounts of active compound desired are applied per unit area. The concentration of the spray liquor is chosen such that the particular amounts of active compound desired are applied in 1000 l of water/Ha.
After three weeks, the degree of damage to the plants is rated in % damage in comparison to the development of the untreated control.
The figures denote: • 0%=no effect (like untreated control) • 100%=total destruction

weeds [3] = assay: Pre-Emergence Test (Example A), damage to weeds; format: in vivo; settings: soil sprayed 24 hours after sowing, rated after three weeks
Method: as §1
To produce a suitable preparation of active compound, 1 part by weight of active compound is mixed with the stated amount of solvent, the stated amount of emulsifier is added and the concentrate is diluted with water to the desired concentration.
Seeds of the test plants are sown in normal soil. After 24 hours, the soil is sprayed with the preparation of active compound such that the particular amount of active compound desired is applied per unit area. The concentration of active compound in the spray liquor is chosen such that the particular amount of active compound desired is applied in 1000 liters of water per hectare.
After three Weeks, the degree of damage to the plants is rated in % damage in comparison to the development of the untreated control. The figures denote: • 0%=no effect (like untreated control) • 100%=total destruction

[4] = HPLC, reverse-phase C 18, 43° C., acidic range: 0.1% aqueous phosphoric acid, acetonitrile, gradient 10% to 90% (marked a))

| SMILES | logP [1, 4] | chromatographic logP [1] | activity against weeds (degree of damage) (weeds [2]) | activity against weeds (degree of damage) (weeds [3]) | logP [1] |
| --- | --- | --- | --- | --- | --- |
| CCn1ncc(C(=O)c2ccc(C(F)(F)F)cc2CS(C)(=O)=O)c1O [Example 1, (1-ethyl-5-hydroxy-1H-pyrazol-4-yl)-(2-methylsulphonylmethyl-4-trifluoromethylphenyl)methanone] | logP = 1.88^a) | 1.88 | strong activity | strong activity | – |
| CCn1ncc(C(=O)c2ccc(C(F)(F)F)cc2CS(C)(=O)=O)c1OCc1ccc(Br)cc1 [Example 2, [1-ethyl-5-(4-bromophenylmethoxy)-1H-pyrazol-4-yl]-(2-methylsulphonylmethyl-4-trifluoromethylphenyl)methanone] | logP = 3.76^a) | 3.76 | strong activity | strong activity | – |
| Cn1ncc(C(=O)c2ccc(C(F)(F)F)cc2CS(C)(=O)=O)c1O [Example 4] | logP = 1.57^a) | – | – | strong activity | – |
| Cn1ncc(C(=O)c2ccc(C(F)(F)F)cc2CS(C)(=O)=O)c1OCc1ccccc1 [Example 5] | – | – | strong activity | strong activity | logP = 2.94^a) |
| Cn1ncc(C(=O)c2ccc(C(F)(F)F)cc2CS(C)(=O)=O)c1OCc1ccc(F)cc1 [Example 6] | – | – | – | strong activity | logP = 3.02^a) |
| Cn1ncc(C(=O)c2ccc(C(F)(F)F)cc2CS(C)(=O)=O)c1OCc1ccc(Cl)cc1 [Example 7] | – | – | – | strong activity | logP = 3.32^a) |
| Cn1ncc(C(=O)c2ccc(C(F)(F)F)cc2CS(C)(=O)=O)c1OCc1ccc(Br)cc1 [Example 8] | – | – | – | strong activity | logP = 3.41^a) |
| Cc1ccc(COc2c(C(=O)c3ccc(C(F)(F)F)cc3CS(C)(=O)=O)cnn2C)cc1 [Example 9] | – | – | – | strong activity | logP = 3.26^a) |
| CCn1ncc(C(=O)c2ccc(C(F)(F)F)cc2CS(C)(=O)=O)c1OCc1ccc(Cl)cc1 [Example 10] | – | – | – | strong activity | logP = 3.64^a) |
| CCn1ncc(C(=O)c2ccc(C(F)(F)F)cc2CS(C)(=O)=O)c1OCc1ccccc1 [Example 11] | – | – | – | strong activity | logP = 3.26^a) |
| CCn1ncc(C(=O)c2ccc(C(F)(F)F)cc2CS(C)(=O)=O)c1OCc1ccc(F)cc1 [Example 12] | – | – | – | strong activity | logP = 3.30^a) |
| CCn1ncc(C(=O)c2ccc(C(F)(F)F)cc2CS(C)(=O)=O)c1OCc1ccc(C)cc1 [Example 13] | – | – | – | strong activity | logP = 3.57^a) |
| CCn1ncc(C(=O)c2ccc(C(F)(F)F)cc2CS(C)(=O)=O)c1OCc1cccc(F)c1 [Example 14] | – | – | – | strong activity | logP = 3.30^a) |
| CCn1ncc(C(=O)c2ccc(C(F)(F)F)cc2CS(C)(=O)=O)c1OCc1cccc(Cl)c1 [Example 15] | – | – | – | strong activity | logP = 3.60^a) |
| CCn1ncc(C(=O)c2ccc(C(F)(F)F)cc2CS(C)(=O)=O)c1OCc1cccc(C)c1 [Example 16] | – | – | – | strong activity | logP = 3.57^a) |
| CCn1ncc(C(=O)c2ccc(C(F)(F)F)cc2CS(C)(=O)=O)c1OCc1ccccc1F [Example 17] | – | – | – | strong activity | logP = 3.29^a) |

| SMILES | logP [1, 4] | chromatographic logP [1] | activity against weeds (degree of damage) (weeds [2]) | activity against weeds (degree of damage) (weeds [3]) | logP [1] |
| --- | --- | --- | --- | --- | --- |
| CCn1ncc(C(=O)c2ccc(C(F)(F)F)cc2CS(C)(=O)=O)c1OCc1ccccc1Cl [Example 18] | – | – | strong activity | strong activity | logP = 3.56^a) |
| CCn1ncc(C(=O)c2ccc(C(F)(F)F)cc2CS(C)(=O)=O)c1OCc1ccccc1C [Example 19] | – | – | strong activity | strong activity | logP = 3.52^a) |
| CCn1ncc(C(=O)c2ccc(C(F)(F)F)cc2CS(C)(=O)=O)c1OCC(=O)c1ccccc1 [Example 20] | – | – | strong activity | strong activity | logP = 3.01^a) |
| CCn1ncc(C(=O)c2ccc(C(F)(F)F)cc2CS(C)(=O)=O)c1OC(=O)c1ccccc1 [Example 21] | – | – | – | strong activity | logP = 3.07^a) |
| CCn1ncc(C(=O)c2ccc(C(F)(F)F)cc2CS(C)(=O)=O)c1OS(=O)(=O)c1ccc(C)cc1 [Example 22] | logP = 3.39^a) | – | – | strong activity | – |
| CCn1ncc(C(=O)c2ccc(C(F)(F)F)cc2CS(C)(=O)=O)c1OS(C)(=O)=O [Example 23] | – | – | strong activity | strong activity | logP = 2.50^a) |
| C#CCOc1c(C(=O)c2ccc(C(F)(F)F)cc2CS(C)(=O)=O)cnn1CC [Example 24] | – | – | – | – | logP = 2.59^a) |
| CCOC(=O)COc1c(C(=O)c2ccc(C(F)(F)F)cc2CS(C)(=O)=O)cnn1CC [Example 25] | – | – | – | – | logP = 2.72^a) |
| CCOC(=O)C(C)Oc1c(C(=O)c2ccc(C(F)(F)F)cc2CS(C)(=O)=O)cnn1CC (centres unmarked) [Example 26] | – | – | – | – | logP = 3.01^a) |
| CCOC(=O)COc1c(C(=O)c2ccc(C(F)(F)F)cc2CS(C)(=O)=O)cnn1C [Example 27] | – | – | – | – | logP = 2.44^a) |
| CCOC(=O)C(C)Oc1c(C(=O)c2ccc(C(F)(F)F)cc2CS(C)(=O)=O)cnn1C (centres unmarked) [Example 28] | – | – | – | – | logP = 2.70^a) |
| C#CCOc1c(C(=O)c2ccc(C(F)(F)F)cc2CS(C)(=O)=O)cnn1C [Example 29] | – | – | – | – | logP = 2.30^a) |
| CC1(C)CCC(=O)C(C(=O)c2ccc(C(F)(F)F)cc2CS(C)(=O)=O)C1=O (centres unmarked) [Example 30] | – | – | – | – | logP = 2.86^a) |
| CCSCc1cc(C(F)(F)F)ccc1C(=O)c1cnn(CC)c1O [Example 32] | logP = 3.36^a) | – | – | – | – |
| CS(=O)(=O)Cc1cc(C(F)(F)F)ccc1C(=O)C1=C(Cl)CCCC1=O [Example 33] | – | – | – | – | logP = 2.42^a) |
